Where two headings read alike, the source gives them in different places.
How the values were obtained:
[1] = tested on: compound 48/80-induced lethality; assay: Protection of rats from compound 48/80-induced lethality; type: in vivo, rats of an inbred Wistar strain; conditions: Rattus norvegicus, 4 h, read-out: Compound 48/80 lethality test in rats ED50, s.c. or p.o. 1 h before compound 48/80 0.5 mg/kg i.v.; protection of 50% of animals, survival after 4 hours
Summary of the method: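 Male inbred Wistar rats (240-260 g), starved overnight, dosed subcutaneously or orally with compound or 0.9% NaCl before compound 48/80 challenge. Survival at 4 hours counted as protection. ED50 in mg/kg is the dose protecting 50% of animals from lethality.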

effects of serotonin = assay: Antagonistic activity on the effects of serotonin in the gastric lesion test (lesions induced by compound 48/80); type: in vivo, rats of a Wistar inbred strain; conditions: Rattus norvegicus, po, read-out: gastric lesion test ED50
Method: Antagonistic activity on the effects of serotonin in the gastric lesion test.
The shock, followed by dead, can be avoided if the rats are pretreated with a classical H 1 antagonist.
Male rats of a Wistar inbred strain, weighing 220-250 g, were starved overnight, water being available ad libitum. The test compounds were administered orally as a solution or as a suspension in aqueous medium. A control rat and a "blank" rat received the test compound. One hour later 5-[4-(diphenylmethyl)1-piperazinylmethyl]-1-methyl-1H-benzimidazole-2-methanol was administered subcutaneously to all rats at the dose of 2.5 mg/kg. […] Four hours after the intravenous injection of compound 48/80, the rats were decapitated and the stomachs were removed. Subsequently the stomachs were inspected for distension and contents (blood, fluid, food) and thoroughly rinsed. The macroscopic lesions were scored from 0 to +++, 0 corresponding to complete absence of visible lesions and the highest score corresponding to reddish rough patches covering more than half the glandular area.
The second column of tables 1-4 show for a number of compounds of formula (I) the doses (in mg/kg body weight) at which the distension of the stomach as well as the lesions in the glandular area of the stomach are completely absent in 50% of the test rats (ED50 -value).

[2] = compound 48/80 1 mg/kg i.v., distension and lesions of stomach completely absent in 50% of rats

| SMILES | ED50 [1] [mg/kg] | ED50 (effects of serotonin) [mg/kg] | ED50 (effects of serotonin; [2]) [mg/kg] |
| --- | --- | --- | --- |
| Fc1ccc(Cn2c(CC3CCN(CCNc4ncccn4)CC3)nc3ccncc32)cc1 [Compound 351, N-[2-[4-[[3-[(4-fluorophenyl)methyl]-3H-imidazo[4,5-c]pyridin-2-yl]methyl]-1-piperdinyl]-ethyl]-2-pyrimidinamine] | 0.02 | 0.08 |  |
| c1csc(Cn2c(CC3CCN(CCNc4nccs4)CC3)nc3ccccc32)c1 [Compound 356] | 0.02 | 0.08 |  |
| Fc1ccc(Cn2c(CC3CCN(CCNc4nccs4)CC3)nc3cccnc32)cc1 [Compound 357] | 0.02 |  | 0.63 |
| c1ccc(Cn2c(CC3CCN(CCNc4nccs4)CC3)nc3cccnc32)cc1 [Compound 362] | 0.08 |  | 0.63 |
| Fc1ccc(Cn2c(CC3CCN(CCNc4nc5ccccc5s4)CC3)nc3ccccc32)cc1 [Compound 367] | 0.16 |  | 0.16 |
| Cn1c(O)nc2c(NCCN3CCC(Cc4nc5ccccc5n4Cc4ccc(F)cc4)CC3)ncnc21 [Compound 371] | 0.16 |  | 0.63 |
| Cc1nc2c(NCCN3CCC(Cc4nc5ccccc5n4Cc4ccc(F)cc4)CC3)ncnc2n1C [Compound 372] | 0.04 |  | 0.16 |
| Fc1ccc(Cn2c(CC3CCN(CCNc4ncccn4)CC3)nc3ccccc32)cc1 [Compound 374] | 0.02 |  | 0.02 |
| Fc1ccc(Cn2c(CC3CCN(CCNc4ncccn4)CC3)nc3cccnc32)cc1 [Compound 376, N-[2-[4-[[3-[(4-fluorophenyl)methyl]-3H-imidazo[4,5-b]pyridin-2-yl]methyl]-1-piperidinyl]ethyl]-2-pyrimidinamine] | 0.02 |  | 0.63 |
| O=[N+]([O-])c1cc[n+]([O-])cc1NCCN1CCC(Cc2nc3ccccc3n2Cc2ccc(F)cc2)CC1 [Compound 379, N-[2-[4-[[1-[(4-fluorophenyl)methyl]-1H-benzimidazol-2-yl]methyl]-1-piperidinyl]ethyl]-4-nitro-3-pyridinamine, 1-oxide] | 0.08 |  | 0.31 |
| Cn1cnc([N+](=O)[O-])c1N1CCC(N2CCC(Cc3nc4ccccc4n3Cc3ccc(F)cc3)CC2)CC1 [Compound 380, 4-[[1-[(4-fluorophenyl)methyl]-1H-benzimidazol-2-yl]methyl]-1'-(1-methyl-4-nitro-1H-imidazol-5-yl)-[1,4'-bipiperidine]] | 0.31 |  | 0.63 |
| Fc1ccc(Cn2c(CC3CCN(CCNc4nnc(Cl)c5ccccc45)CC3)nc3ccccc32)cc1 [Compound 381, 4-chloro-N-[2-[4-[[1-[(4-fluorophenyl)methyl]-1H-benzimidazol-2-yl]methyl]-1-piperidinyl]ethyl]-1-phthalazinamine] | 0.08 |  | 0.16 |
| Cc1cc(Cl)nc(NCCN2CCC(Cc3nc4ccccc4n3Cc3ccc(F)cc3)CC2)n1 [Compound 382, 4-chloro-N-[2-[4-[[1-[(4-fluorophenyl)methyl]-1H-benzimidazol-2-yl]methyl]-1-piperidinyl]ethyl]-6-methyl-2-pyrimidinamine] | 0.08 |  | 0.63 |
| Cc1cc(NCCN2CCC(Cc3nc4ccccc4n3Cc3ccc(F)cc3)CC2)nc(Cl)n1 [Compound 383, 2-chloro-N-[2-[4-[[1-[(4-fluorophenyl)methyl]-1H-benzimidazol-2-yl]methyl]-1-piperidinyl]ethyl]-6-methyl-4-pyrimidinamine] | 0.04 |  | 0.16 |
| Fc1ccc(Cn2c(CC3CCN(CCNc4cc(Cl)ncn4)CC3)nc3ccccc32)cc1 [Compound 384] | 0.08 |  | 0.63 |
| O=C1OCCN1CCN1CCC(Cc2nc3ccccc3n2Cc2ccc(F)cc2)CC1 [Compound 385, 3-[2-[4-[[1-[(4-fluorophenyl)methyl]-1H-benzimidazol-2-yl]methyl]-1-piperidinyl]ethyl]2-oxazolidinone] | 0.01 | 0.08 |  |
| Fc1ccc(Cn2c(CC3CCN(CCOc4ncccn4)CC3)nc3ccccc32)cc1 [Compound 391, 1-[(4-fluorophenyl)methyl]-2-[[1-[2-(2-pyrimidinyloxy)ethyl]-4-piperidinyl]methyl]-1H-benzimidazole] | 0.02 |  | 0.02 |
| c1cnc(OCCN2CCC(Cc3nc4ccccc4n3Cc3ccco3)CC2)nc1 [Compound 392, 1-(2-furanylmethyl)-2-[[1-[2-(2-pyrimidinyloxy)ethyl]-4-piperidinyl]methyl]-1H-benzimidazole] | 0.02 |  | 0.63 |
| S=C=NCCN1CCC(Cc2nc3ccccc3n2Cc2cccs2)CC1 [Compound 397] | 0.04 | 0.04 |  |
| S=C=NCCN1CCC(Cc2nc3ccccc3n2Cc2ccco2)CC1 [Compound 399] | 0.02 | 0.04 |  |
| c1csc(Cn2c(CC3CCN(CCNc4nc5cnccc5[nH]4)CC3)nc3ccccc32)c1 [Compound 416, N-[2-[4-[[1-(2-thienylmethyl)-1H-benzimidazol-2-yl]methyl]-1-piperidinyl]ethyl]-1H-imidazo[4,5-c]pyridin-2-amine] | 0.04 | 0.04 |  |
| c1coc(Cn2c(CC3CCN(CCNc4nc5cnccc5[nH]4)CC3)nc3ccccc32)c1 [Compound 418, N-[2-[4-[[1-(2-furanylmethyl)-1H-benzimidazol-2-yl]methyl]-1-piperidinyl]ethyl]-1H-imidazo[4,5-c]pyridin-2-amine] | 0.02 | 0.04 |  |
| c1ccc(Cn2c(CC3CCN(CCNc4nc5cnccc5[nH]4)CC3)nc3ccccc32)cc1 [Compound 422, N-[2-[4-[[1-(phenylmethyl)-1H-benzimidazol-2-yl]methyl]-1-piperidinyl]ethyl]-1H-imidazo[4,5-c]pyridin-2-amine] | 0.04 | 0.04 |  |
| CNC(=S)NCCN1CCC(Cc2nc3ccccc3n2Cc2ccc(F)cc2)CC1 [Compound 428, N-[2-[4-[[1-[(4-fluorophenyl)methyl]-1H-benzimidazol-2-yl]methyl]-1-piperidinyl]ethyl]-N'-methylthiourea] | 0.04 |  | 0.01 |
| CCNC(=O)NCCN1CCC(Cc2nc3ccccc3n2Cc2ccc(F)cc2)CC1 [Compound 430, N-ethyl-N'-[2-[4-[[1-[(4-fluorophenyl)methyl]-1H-benzimidazol-2-yl]methyl]-1-piperidinyl]ethyl]urea] | 0.01 |  | 0.005 |
| O=C(NCCN1CCC(Cc2nc3ccccc3n2Cc2ccc(F)cc2)CC1)c1ccsc1 [Compound 431] | 0.04 |  | 0.005 |
| O=C(NCCN1CCC(Cc2nc3cccnc3n2Cc2ccc(F)cc2)CC1)c1ccoc1 [Compound 432] | 0.04 |  | 0.31 |
| Cn1cccc1C(=O)NCCN1CCC(Cc2nc3ccccc3n2Cc2ccc(F)cc2)CC1 [Compound 433, N-[2-[4-[[1-[(4-fluorophenyl)methyl]-1H-benzimidazol-2-yl]methyl]-1-piperidinyl]ethyl]-1-methyl-1H-pyrrole-2-carboxamide] | 0.01 |  | 0.16 |
| Nc1nccnc1C(=O)NCCN1CCC(Cc2nc3ccccc3n2Cc2ccc(F)cc2)CC1 [Compound 436, 3-amino-N[2-[4-[[1-[(4-fluorophenyl)methyl]-1H-benzimidazol-2-yl]methyl]-1-piperidinyl]ethyl]-2-pyrazinecarboxamide] | 0.01 |  | 0.63 |
